# Test results reported in publication PMC11563196 (Chemical communications (Cambridge, England), 2024).
# What was measured:
# HDAC1 [1] = target: T1, HDAC1 (Homo sapiens, UniProt Q13547); experiment: HDAC1 abundance by quantitative fluorescence western blotting in HCT116 cells; type: cell-based; conditions: for Dose response degradation of HDAC1: 24 h, 0.01-10 μM, two independent biological replicates; for HDAC1 abundance: at 0.1 μM and 1 μM
# T1 construct: endogenous in cells; host or cells: HCT116 (ATCC CCL-247)
# T1 sequence (Q13547 whole entry): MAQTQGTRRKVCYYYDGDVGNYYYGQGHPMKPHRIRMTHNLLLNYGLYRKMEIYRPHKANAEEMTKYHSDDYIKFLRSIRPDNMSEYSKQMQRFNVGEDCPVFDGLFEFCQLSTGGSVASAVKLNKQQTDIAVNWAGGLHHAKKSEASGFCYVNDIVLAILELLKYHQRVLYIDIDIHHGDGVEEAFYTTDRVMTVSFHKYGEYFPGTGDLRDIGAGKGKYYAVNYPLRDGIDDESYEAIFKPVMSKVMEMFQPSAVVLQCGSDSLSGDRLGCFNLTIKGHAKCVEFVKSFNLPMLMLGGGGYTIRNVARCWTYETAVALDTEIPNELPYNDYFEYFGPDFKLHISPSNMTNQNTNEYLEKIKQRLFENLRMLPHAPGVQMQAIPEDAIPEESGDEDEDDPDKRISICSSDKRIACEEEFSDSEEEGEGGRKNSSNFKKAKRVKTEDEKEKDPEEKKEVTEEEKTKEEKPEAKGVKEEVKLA
# Method: (§1) We screened these compounds side-by side with JPS004 a VHL based HDAC1–3 targeting PROTAC and the HDAC1–3 inhibitor CI-994 as control compounds for degradation and inhibition, respectively. […] HCT116 cells were incubated for 24 hours with the compounds and HDAC1, HDAC2 and HDAC3 abundance was quantified by fluorescence western blotting. We also determined the effects on Histone 3 Lysine 56 acetylation (H3K56ac) levels as a secondary assay, for in-cell HDAC inhibition or degradation. […] Similar to our previous observations with VHL recruiting PROTACs, HDAC2 reduction was less affected. It was noteworthy that 7 also incorporated a 12 carbon alkyl linker, which has been an effective linker in our previous studies.[10],[11] Pleasingly, compounds 3–8 also had more modest effects on HDAC3 abundance compared to previously reported VHL recruiting PROTACs.[6]–[13] […] However, while surprising, it is not unprecedented as we and others have observed similar effects on histone acetylation markers with HDAC3 targeting PROTACs.[11],[13],[18]
# (§2) Fig. 3 HDAC1, HDAC2, HDAC3 abundance were determined by quantitative western blotting with antibodies for HDAC1, HDAC2, HDAC3 in HCT116 cells after 24 hours. H3K56 acetylation levels were also determined by quantitative western blotting with an antibody for H3K56ac, and the fold change was compared between compounds at 10 μM, normalising treatment with inhibitor CI 994 = 1.0.
# (§3) Supplementary Information: Biology
# (§4) 1. Cell Culture, Compound Handling and Western Blotting Protocols
# (§5) The HCT116 cell line used in this study was obtained from ATCC (CCL-247). HCT116 human colon carcinoma cells were grown in a Dulbecco’s modified Eagle medium (GIBCO, 41965-039) supplemented with 10% FBS (Sigma) and 1X glutamine/penicillin/streptomycin (GIBCO, 10378−016). Cells were incubated at 37 °C with 5% CO2. Cells were treated with compounds at indicated concentrations (0.01−10 μM). All compounds were made up to a standard solution of 10 mM in DMSO, serially diluted in DMSO, then added to fresh medium (5 mL total) to afford the concentrations stated (0.01−10 μM), with a final DMSO volume of […]
# HCT116 cells were seeded into 6-well plates (4 × 10^5 cells/well) for 24 hours and then treated with DMSO or compounds at the indicated concentrations in fresh medium (5 mL total). After 24 hours treatment time, the cells were harvested and then lysed in lysis buffer (50 mM Tris-HCl, 150 mM NaCl, 0.5% NP-40, 0.5% Triton X-100) supplemented with a protease inhibitor (Sigma, P8340). The suspension was incubated on ice for 30 min, then centrifuged (18,000 rcf, 15 min, 4 °C) and the supernatant collected. Protein concentrations were quantified via Bradford Assay using Protein Assay Dye Reagent Concentrate (BIO-RAD). […] Western blots were run on NuPAGE 4−12% bis−Tris gels with 30 μg of protein or 10 μL of ac id-extracted histone loaded per lane, using NuPAGE LDS sample buffer (4X). PageRuler Plus Prestained Ladder was used for size standards. After gel electrophoresis at 140 V for 90 min, the separated proteins were transferred onto a nitrocellulose membrane at 30 V for 60 min. The membranes were probed with primary antibodies (as indicated below) for 60−90 min. Blots were developed with complimentary IRDye®-conjugated secondary antibodies, and the bands were visualized using an Odyssey infrared imaging system. Image processing and band intensity quantification were performed using Image Studio Lite.
# (§6) 2. Western Blotting Results
# (§7) 2.1. Western Blotting Analysis of Compounds 3-15 from Initial Screen
# (§8) Figure S1. Western blotting of HDAC1/2/3 proteins in HCT116 cells treated with compounds 3-15.
# (§9) (1 picture or pasted object on this page, not shown here)
# HDAC2 [2] = target: T2, HDAC2 (Homo sapiens, UniProt Q92769); experiment: HDAC2 abundance by quantitative fluorescence western blotting in HCT116 cells; type: cell-based; conditions: for HDAC2 abundance / degradation / HDAC2 abundance: initial screen, 24 hours; for Dose response degradation of HDAC2: 24 h, 0.01-10 μM, two independent biological replicates; for HDAC2 abundance: at 0.1 μM and 1 μM
# T2 construct: endogenous in cells; host or cells: HCT116 (ATCC CCL-247)
# T2 sequence (Q92769 whole entry): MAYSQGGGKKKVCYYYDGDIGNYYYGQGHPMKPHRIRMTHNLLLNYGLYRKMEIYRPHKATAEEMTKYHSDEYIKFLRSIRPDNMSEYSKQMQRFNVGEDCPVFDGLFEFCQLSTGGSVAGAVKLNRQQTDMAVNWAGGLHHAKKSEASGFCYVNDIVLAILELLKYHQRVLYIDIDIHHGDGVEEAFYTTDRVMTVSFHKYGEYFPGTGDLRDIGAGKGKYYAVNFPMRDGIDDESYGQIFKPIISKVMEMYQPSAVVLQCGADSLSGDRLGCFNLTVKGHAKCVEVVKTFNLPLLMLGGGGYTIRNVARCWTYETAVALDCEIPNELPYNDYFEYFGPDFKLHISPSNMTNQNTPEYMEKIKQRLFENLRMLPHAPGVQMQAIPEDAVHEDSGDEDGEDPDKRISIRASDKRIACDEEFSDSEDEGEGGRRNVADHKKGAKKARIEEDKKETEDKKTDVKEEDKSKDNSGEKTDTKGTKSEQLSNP
# Method: as §1, §2, §3, §4, §5
# (§10) HCT116 cells were seeded into 6-well plates (4 × 10^5 cells/well) for 24 hours and then treated with DMSO or compounds at the indicated concentrations in fresh medium (5 mL total). After 24 hours treatment time, the cells were harvested and then lysed in lysis buffer (50 mM Tris-HCl, 150 mM NaCl, 0.5% NP-40, 0.5% Triton X-100) supplemented with a protease inhibitor (Sigma, P8340). The suspension was incubated on ice for 30 min, then centrifuged (18,000 rcf, 15 min, 4 °C) and the supernatant collected. Protein concentrations were quantified via Bradford Assay using Protein Assay Dye Reagent Concentrate (BIO-RAD). For histone extraction, an equal volume of 0.4 N H2SO4 was added to the pellets, and the extracts were placed at 4 °C overnight, centrifuged (18,000 rcf, 15 min, 4 °C), then the supernatant (histone extract) collected.
# (§11) Western blots were run on NuPAGE 4−12% bis−Tris gels with 30 μg of protein or 10 μL of ac id-extracted histone loaded per lane, using NuPAGE LDS sample buffer (4X). PageRuler Plus Prestained Ladder was used for size standards. After gel electrophoresis at 140 V for 90 min, the separated proteins were transferred onto a nitrocellulose membrane at 30 V for 60 min. The membranes were probed with primary antibodies (as indicated below) for 60−90 min. Blots were developed with complimentary IRDye®-conjugated secondary antibodies, and the bands were visualized using an Odyssey infrared imaging system. Image processing and band intensity quantification were performed using Image Studio Lite.
# as §6, §7, §8, §9
# HDAC3 [3] = target: T3, HDAC3 (Homo sapiens, UniProt O15379); experiment: HDAC3 abundance by quantitative fluorescence western blotting in HCT116 cells; type: cell-based; conditions: for HDAC3 abundance / degradation: initial screen, 24 hours; for Dose response degradation of HDAC3: 24 h, 0.01-10 μM, two independent biological replicates
# T3 construct: endogenous in cells; host or cells: HCT116 (ATCC CCL-247)
# T3 sequence (O15379 whole entry): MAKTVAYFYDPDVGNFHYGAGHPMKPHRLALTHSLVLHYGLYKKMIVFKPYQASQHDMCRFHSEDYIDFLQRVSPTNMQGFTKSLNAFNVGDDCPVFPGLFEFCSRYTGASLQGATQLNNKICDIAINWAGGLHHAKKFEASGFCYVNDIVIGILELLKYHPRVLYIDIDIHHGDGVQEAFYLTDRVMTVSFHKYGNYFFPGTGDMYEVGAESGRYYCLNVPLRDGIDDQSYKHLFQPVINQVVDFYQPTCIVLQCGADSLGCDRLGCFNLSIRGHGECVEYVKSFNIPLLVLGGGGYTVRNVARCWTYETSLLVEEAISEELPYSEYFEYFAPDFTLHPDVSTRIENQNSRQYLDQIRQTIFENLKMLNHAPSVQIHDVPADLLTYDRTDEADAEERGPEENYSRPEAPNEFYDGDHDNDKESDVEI
# T3 sequence (Q9Y618 whole entry partner): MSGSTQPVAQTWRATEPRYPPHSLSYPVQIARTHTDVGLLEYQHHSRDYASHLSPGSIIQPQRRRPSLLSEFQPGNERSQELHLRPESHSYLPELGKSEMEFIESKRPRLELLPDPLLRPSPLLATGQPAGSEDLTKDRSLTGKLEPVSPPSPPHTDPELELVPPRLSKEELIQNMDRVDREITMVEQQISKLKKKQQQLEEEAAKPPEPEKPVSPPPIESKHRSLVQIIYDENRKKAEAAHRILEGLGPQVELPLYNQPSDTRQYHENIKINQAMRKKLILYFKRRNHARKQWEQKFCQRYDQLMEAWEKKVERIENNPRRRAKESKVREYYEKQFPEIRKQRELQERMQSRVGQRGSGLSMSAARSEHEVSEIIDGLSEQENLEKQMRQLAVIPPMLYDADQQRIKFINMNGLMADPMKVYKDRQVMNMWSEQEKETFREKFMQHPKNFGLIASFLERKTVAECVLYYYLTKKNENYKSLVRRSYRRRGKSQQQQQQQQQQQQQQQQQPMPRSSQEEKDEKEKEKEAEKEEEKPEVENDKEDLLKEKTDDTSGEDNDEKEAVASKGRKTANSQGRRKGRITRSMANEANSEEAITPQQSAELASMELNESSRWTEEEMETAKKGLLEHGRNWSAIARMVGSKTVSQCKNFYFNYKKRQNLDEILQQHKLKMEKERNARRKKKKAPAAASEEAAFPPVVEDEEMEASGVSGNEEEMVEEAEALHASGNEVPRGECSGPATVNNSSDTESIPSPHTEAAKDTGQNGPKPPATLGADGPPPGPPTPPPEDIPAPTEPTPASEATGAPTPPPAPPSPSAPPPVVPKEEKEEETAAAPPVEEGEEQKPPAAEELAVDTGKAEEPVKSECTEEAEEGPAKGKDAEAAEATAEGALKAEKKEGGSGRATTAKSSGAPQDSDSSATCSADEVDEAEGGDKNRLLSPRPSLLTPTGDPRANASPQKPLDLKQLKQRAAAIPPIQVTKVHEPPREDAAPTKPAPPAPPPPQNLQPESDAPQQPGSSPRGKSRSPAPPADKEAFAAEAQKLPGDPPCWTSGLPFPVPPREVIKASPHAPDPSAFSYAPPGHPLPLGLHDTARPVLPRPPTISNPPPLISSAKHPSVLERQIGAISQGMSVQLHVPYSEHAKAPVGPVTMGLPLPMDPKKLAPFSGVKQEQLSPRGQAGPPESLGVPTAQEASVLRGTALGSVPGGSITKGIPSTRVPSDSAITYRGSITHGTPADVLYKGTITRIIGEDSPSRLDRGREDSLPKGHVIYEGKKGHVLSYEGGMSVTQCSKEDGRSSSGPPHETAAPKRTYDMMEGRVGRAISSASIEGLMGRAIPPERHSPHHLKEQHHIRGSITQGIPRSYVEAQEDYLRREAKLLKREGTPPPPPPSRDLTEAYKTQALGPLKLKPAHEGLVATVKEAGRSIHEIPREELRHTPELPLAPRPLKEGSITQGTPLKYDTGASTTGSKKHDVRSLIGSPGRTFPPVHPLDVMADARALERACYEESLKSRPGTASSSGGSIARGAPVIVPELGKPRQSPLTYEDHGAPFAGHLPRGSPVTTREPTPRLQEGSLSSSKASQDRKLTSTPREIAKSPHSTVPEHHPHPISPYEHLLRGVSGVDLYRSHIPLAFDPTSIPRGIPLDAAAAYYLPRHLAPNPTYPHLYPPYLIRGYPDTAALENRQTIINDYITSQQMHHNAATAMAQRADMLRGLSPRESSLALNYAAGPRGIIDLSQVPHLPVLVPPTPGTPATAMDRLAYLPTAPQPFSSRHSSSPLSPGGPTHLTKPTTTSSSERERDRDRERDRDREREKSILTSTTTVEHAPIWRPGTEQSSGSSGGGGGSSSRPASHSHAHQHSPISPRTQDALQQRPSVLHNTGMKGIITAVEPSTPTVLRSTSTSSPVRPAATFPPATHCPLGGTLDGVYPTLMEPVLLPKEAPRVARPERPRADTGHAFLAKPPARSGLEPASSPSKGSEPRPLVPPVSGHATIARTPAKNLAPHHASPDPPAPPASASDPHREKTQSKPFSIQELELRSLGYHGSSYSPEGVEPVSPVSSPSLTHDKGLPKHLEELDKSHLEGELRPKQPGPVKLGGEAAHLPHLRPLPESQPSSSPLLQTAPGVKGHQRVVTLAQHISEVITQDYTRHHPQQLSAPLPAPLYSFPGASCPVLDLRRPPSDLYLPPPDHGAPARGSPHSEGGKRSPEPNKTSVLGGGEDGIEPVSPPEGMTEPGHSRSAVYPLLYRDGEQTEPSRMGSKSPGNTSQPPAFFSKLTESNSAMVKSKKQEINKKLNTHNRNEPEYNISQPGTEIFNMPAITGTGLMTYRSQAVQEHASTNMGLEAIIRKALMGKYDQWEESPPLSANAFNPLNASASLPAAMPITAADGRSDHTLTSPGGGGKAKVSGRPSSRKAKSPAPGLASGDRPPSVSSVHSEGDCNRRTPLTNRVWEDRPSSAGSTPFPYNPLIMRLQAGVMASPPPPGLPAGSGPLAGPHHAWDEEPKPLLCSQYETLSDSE
# Method: as §1, §2, §3, §4, §5, §10, §11, §6, §7, §8, §9
# H3K56ac = experiment: Histone 3 Lysine 56 acetylation (H3K56ac) levels by quantitative western blotting in HCT116 cells; type: cell-based, human; conditions: for H3K56ac levels: initial screen, HCT116 cells, 24 hours, fold change compared at 10 μM; for H3K56 acetylation levels: rescreen with methylated controls (Fig. 4C)
# Method: as §1, §2, §3, §4, §5, §10
# Western blots were run on NuPAGE 4−12% bis−Tris gels with 30 μg of protein or 10 μL of ac id-extracted histone loaded per lane, using NuPAGE LDS sample buffer (4X). PageRuler Plus Prestained Ladder was used for size standards. After gel electrophoresis at 140 V for 90 min, the separated proteins were transferred onto a nitrocellulose membrane at 30 V for 60 min. The membranes were probed with primary antibodies (as indicated below) for 60−90 min. […] Image processing and band intensity quantification were performed using Image Studio Lite. […]
# HDAC1 [4] = test system: HDAC1; set-up: method as in PMID 35293758; conditions: previous findings; cited from earlier work
# HDAC2 [5] = test system: HDAC2; set-up: method as in PMID 35293758; conditions: previous findings; cited from earlier work
# HDAC3 [6] = test system: HDAC3; set-up: method as in PMID 35293758; conditions: previous findings; cited from earlier work
# HDAC1 [7] = test system: HDAC1; set-up: method as in PMID 35008795; conditions: cited from earlier work
# HDAC2 [8] = test system: HDAC2; set-up: method as in PMID 35008795; conditions: cited from earlier work
# HDAC3 [9] = test system: HDAC3; set-up: method as in PMID 35008795; conditions: cited from earlier work
compound,measurement,setting,value
Nc1ccccc1NC(=O)c1cnc(N2CCN(C(=O)CCCCCCCC(=O)NCCNc3cccc4c3C(=O)N(C3CCC(=O)NC3=O)C4=O)CC2)cn1 (stereo not shown) [Compound 9],HDAC1 abundance / degradation,"HDAC1 [1]; initial screen, 24 hours",no effects
same,HDAC2 abundance / degradation,HDAC2 [2],no effects
same,HDAC3 abundance / degradation,HDAC3 [3],no effects
same,H3K56ac levels,H3K56ac,increase H3K56ac levels to greater levels than DMSO controls
Nc1ccc(-c2ccc(F)cc2)cc1NC(=O)c1cnc(N2CCN(C(=O)CCCCCCCC(=O)N3CCN(c4cccc5c4C(=O)N(C4CCC(=O)NC4=O)C5=O)CC3)CC2)cn1 (stereo not shown) [Compound 15],HDAC1 abundance / degradation,"HDAC1 [1]; initial screen, 24 hours",less effective at HDAC1 degradation compared to 11 and 12
Nc1ccc(-c2ccc(F)cc2)cc1NC(=O)c1cnc(N2CCN(CCCCCCNc3cccc4c3C(=O)N(C3CCC(=O)NC3=O)C4=O)CC2)cn1 (stereo not shown) [Compound 10],HDAC1 abundance / degradation,"HDAC1 [1]; initial screen, 24 hours",no effects
same,HDAC2 abundance / degradation,HDAC2 [2],no effects
same,HDAC3 abundance / degradation,HDAC3 [3],no effects
same,H3K56ac levels,H3K56ac,increase H3K56ac levels to greater levels than DMSO controls
Cc1ncsc1-c1ccc(CNC(=O)[C@@H]2C[C@@H](O)CN2C(=O)[C@@H](NC(=O)CCCCCCCCCCC(=O)Nc2ccc(C(=O)Nc3ccccc3N)cc2)C(C)(C)C)cc1 [JPS004],HDAC1 degradation,HDAC1 [4],degrade
same,HDAC2 degradation,HDAC2 [5],degrade
same,HDAC3 degradation,HDAC3 [6],HDAC3 degradation is compromised at concentrations >1 μM due to the hook effect
Nc1ccc(-c2ccc(F)cc2)cc1NC(=O)c1cnc(N2CCNCC2)cn1 [Compound 1],IC50,HDAC1 [7],160 nM
same,IC50,HDAC2 [8],340 nM
same,IC50,HDAC3 [9],6700 nM
Nc1ccccc1NC(=O)c1cnc(N2CCN(C(=O)CCC3CCN(c4cccc5c4C(=O)N(C4CCC(=O)NC4=O)C5=O)CC3)CC2)cn1 (stereo not shown) [Compound 5],Dose response degradation of HDAC1,HDAC1 [1],dose dependent degradation
same,Dose response degradation of HDAC2,HDAC2 [2],dose dependent degradation
same,Dose response degradation of HDAC3,HDAC3 [3],a hook effect was observed
same,H3K56 acetylation levels,H3K56ac,increasing H3K56ac levels
Nc1ccc(-c2ccc(F)cc2)cc1NC(=O)c1cnc(N2CCN(C(=O)CCC3CCN(c4cccc5c4C(=O)N(C4CCC(=O)NC4=O)C5=O)CC3)CC2)cn1 (stereo not shown) [Compound 12],Dose response degradation of HDAC1,HDAC1 [1],very similar dose dependent degradation of HDAC1 and HDAC2 to 5
same,degradation selectivity (HDAC1 over HDAC3),HDAC1 [1]; 24 hours,selective degradation of HDAC1 over HDAC3
same,HDAC1 abundance,"HDAC1 [1]; initial screen, 24 hours",reduced
same,Dose response degradation of HDAC2,HDAC2 [2],very similar dose dependent degradation of HDAC1 and HDAC2 to 5
same,HDAC2 abundance,HDAC2 [2],reduced
same,Dose response degradation of HDAC3,HDAC3 [3],HDAC3 degradation was abolished
same,HDAC3 abundance / degradation,HDAC3 [3],no HDAC3 degradation
Cc1ncsc1-c1ccc(CNC(=O)[C@@H]2C[C@@H](O)CN2C(=O)[C@@H](NC(=O)COCCCCCCCCCOCC(=O)Nc2ccc(C(=O)Nc3ccccc3N)cc2)C(C)(C)C)cc1 [JPS016],HDAC1 degradation,HDAC1 [4],degrade
same,HDAC2 degradation,HDAC2 [5],degrade
same,HDAC3 degradation,HDAC3 [6],hook effect for HDAC3
Nc1ccc(-c2ccc(F)cc2)cc1NC(=O)c1cnc(N2CCN(C(=O)CCCCCCCCCCCNc3cccc4c3C(=O)N(C3CCC(=O)NC3=O)C4=O)CC2)cn1 (stereo not shown) [Compound 14],HDAC1 abundance / degradation,"HDAC1 [1]; initial screen, 24 hours",less effective at HDAC1 degradation compared to 11 and 12
Nc1ccccc1NC(=O)c1cnc(N2CCN(C(=O)CCCCCCCCCCCNc3cccc4c3C(=O)N(C3CCC(=O)NC3=O)C4=O)CC2)cn1 (stereo not shown) [Compound 7],Dose response degradation of HDAC1,HDAC1 [1],clear dose dependent HDAC1 degradation
same,degradation selectivity (HDAC1 over HDAC3),HDAC1 [1]; 24 hours,selective degradation of HDAC1 over HDAC3
same,HDAC1 degradation,"HDAC1 [1]; initial screen, 24 hours, at 1 μM",greatest HDAC1 degradation
same,Dose response degradation of HDAC3,HDAC3 [3],minimal HDAC3 degradation
same,H3K56ac levels,H3K56ac,did not increase H3K56ac levels
same,H3K56 acetylation levels,H3K56ac,did not increase H3K56 acetylation levels
Cc1ncsc1-c1ccc(CNC(=O)[C@@H]2C[C@@H](O)CN2C(=O)[C@@H](NC(=O)C2(F)CC2)C(C)(C)C)c(OCCCCCCCCCCCC(=O)Nc2ccc(C(=O)Nc3ccccc3N)cc2)c1 [JPS036],HDAC3 degradation selectivity over HDAC1/2,HDAC3 [6],can enhance HDAC3 degradation selectivity over HDAC1/2
Nc1ccc(-c2ccc(F)cc2)cc1NC(=O)c1cnc(N2CCN(C(=O)CCCCCNc3cccc4c3C(=O)N(C3CCC(=O)NC3=O)C4=O)CC2)cn1 (stereo not shown) [Compound 11],HDAC1 abundance,"HDAC1 [1]; initial screen, 24 hours",reduced
same,HDAC2 abundance,HDAC2 [2],reduced
same,HDAC3 abundance / degradation,HDAC3 [3],no HDAC3 degradation
